Five molecules from patent US8513219B2, “Substituted phosphonates and their use in decreasing amyloid aggregates” (Queen Mary & Westfield College, University of London, priority 2007, dated 2013) can be followed below.

Read-outs that look alike come from different tables or passages of the source.

The subject of data set [1] is intracellular amyloid in H4 cells. In words: intracellular distribution of amyloid in H4 cells (6E10 immunofluorescence). In kind it is cell-based, human. The conditions noted are these: 1 μM, 5 days incubation, single dose.
Data set [2] has as its system H4 cells (human neuroblastoma cell line).
The next data set has as its system β-amyloid plaques. Also on record: species or system APP and APP/Tau transgenic mice. Particulars: mouse, in vivo.
The subject of data set [3] is amyloid accumulation in H4 cells. Description: H4 cell amyloid accumulation (6E10 antibody, HRP/OPD absorbance). In kind it is cell-based, human.
Data set [4] deals with L929 immortalised fibroblast cell line. In words: MTT colorimetric toxicity assay in L929 fibroblast cell line. In kind it is cell-based. Particulars: L929, 0.3 nM to 1 μM, up to 24 h exposure. As to the method:
A first assessment of the potential toxicity of the substituted phosphonates was carried out in a non-neuronal cell line, using a tetrazolium salt (MTT) colorimetric assay, based on the method described by Mossman (1983), which gives a reflection of mitochondrial activity and cell integrity. The MTT [3-(4,5-dimethylthiazol-2-yl)-2,5-diphenyltetrazolium bromide] assay is based on the ability of a mitochondrial dehydrogenase enzyme from viable cells to cleave the tetrazolium rings of the pale yellow MTT and form dark blue formazan crystals which cannot cross cell membranes. The result is that healthy cells will accumulate more of the blue formazan crystals. […] They were then incubated for 2 h after addition of MTT (1 mg/ml) and the absorbance was read at 570 nm. […] The toxicity of the reference compound clioquinol (0.3 nM to 1 μM) was assessed under the same conditions, for comparison.
A first assessment of toxicity of the substituted phosphonates was carried out in a non-neuronal cell line, using a tetrazolium salt (MTT) colorimetric assay, based on the method described by Mossman (1983), which gives a reflection of mitochondrial activity and cell integrity (FIGS. 6 and 7). The toxicity of the reference compound clioquinol (0.3 nM to 1 μM) was assessed under the same conditions, for comparison.
Background: Formazan colour is commonly taken as a measure of viable cells.

[5] abbreviates: H4 cells, 1 μM, average of 2-3 experiments.

Turning to `Oc1c(I)cc(Cl)c2cccnc12` [Clioquinol, reference compound], the “intracellular amyloid labelling in H4 cells” value in data set [1] is “reduced this intracellular accumulation in some of the cells, but brightly labelled areas could still be found”. In addition, in data set [2] (5 days, 1 μM), the “cell survival (% controls), 5 day repeated doses” value is reported as 96 % controls and the “cell survival (% controls), 5 day single dose” value was determined as 99 % controls. Further, the “amyloid plaque load in brain” value in the data set on β-amyloid plaques was “apparent decreased plaque load, and especially a reduced load of large aggregates”. Further, in data set [3] (1 μM, 5 days), the “accumulation of amyloid in H4 cells” value is listed as “decreases the accumulation of amyloid”. Besides, in data set [3] (setting [5]), the “amyloid reduction (% controls), 5 day repeated doses” value was 76 % controls and the “amyloid reduction (% controls), 5 day single dose” value turned out to be 64 % controls. Besides, in data set [4], the “toxicity as reflected in cell viability (MTT)” value is reported as “neither clioquinol nor any of the substituted phosphonates screened showed any toxicity”.

Turning to `CCOP(=O)(COc1ccccc1-c1nc2ccccc2s1)OCC` [Compound 14, Diethyl 2-(2-benzthiazolyl)phenoxymethylphosphonate], in data set [2], the “cell survival (% controls), 5 day repeated doses” value came to 110 % controls and the “cell survival (% controls), 5 day single dose” value was found to be 100 % controls. For the same molecule, in data set [3], the “amyloid reduction (% controls), 5 day repeated doses” value amounted to 83 % controls and the “amyloid reduction (% controls), 5 day single dose” value turned out to be 100 % controls.

On to `CCOP(=O)(COc1ccc2c(c1)[nH]c1ccccc12)OCC` [Compound 17, Diethyl-2-carbazolyloxymethylphosphonate], for which, in data set [2], the “cell survival (% controls), 5 day repeated doses” value worked out at 102 % controls and the “cell survival (% controls), 5 day single dose” value is recorded as 97 % controls. Also, in data set [3], the “amyloid reduction (% controls), 5 day repeated doses” value is recorded as 62 % controls and the “amyloid reduction (% controls), 5 day single dose” value is reported as 37 % controls.

For `O=P([O-])([O-])Cn1c2ccccc2c2ccccc21.[Na+].[Na+]` [Compound 20, Disodium N-carbazolylmethylphosphonate], in data set [2], the “cell survival (% controls), 5 day repeated doses” value turned out to be 72 % controls; the “cell survival (% controls), 5 day single dose” value turned out to be 88 % controls; the “reduction of cell viability” value was 28%. In data set [3], the “amyloid reduction (% controls), 5 day repeated doses” value was determined as 66 % controls and the “amyloid reduction (% controls), 5 day single dose” value was 11 % controls.

As for `CCOP(=O)(COc1ccc(NC(C)=O)cc1)OCC` [Compound 25, Diethyl 4-acetamidophenoxy methylphosphonate], in data set [2], the “cell survival (% controls), 5 day repeated doses” value is recorded as 97 % controls and the “cell survival (% controls), 5 day single dose” value is given as 98 % controls. Also, in data set [3], the “amyloid reduction (% controls), 5 day repeated doses” value is 62 % controls and the “amyloid reduction (% controls), 5 day single dose” value is 24 % controls.
